From PMC8080595, “Discovery of a novel RORγ antagonist with skin-restricted exposure for topical treatment of mild to moderate psoriasis” (Scientific Reports, 2021)

Tests used:
[1] = biological target: T1, RORγ LBD (Homo sapiens, UniProt P51449); assay: LanthaScreen TR-FRET human RORγ coactivator assay; type: biochemical; conditions: antagonist mode, read-out: Binding of RORγ LBD, IC50
T1 construct: The assay was performed with GST-tag RORγ LBD (25 ng/reaction, Creative Biomart); purchased Creative Biomart
T1 sequence (P51449 269-508 limits assumed): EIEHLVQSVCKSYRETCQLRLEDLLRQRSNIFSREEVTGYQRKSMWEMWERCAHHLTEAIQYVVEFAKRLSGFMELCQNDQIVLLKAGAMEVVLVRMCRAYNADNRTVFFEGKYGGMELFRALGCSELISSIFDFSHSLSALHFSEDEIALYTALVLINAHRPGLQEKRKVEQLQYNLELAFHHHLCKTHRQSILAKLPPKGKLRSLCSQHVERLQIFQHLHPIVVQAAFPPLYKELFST
Text: In LanthaScreen TR-FRET RORγ coactivator assay, the RORγ LBD was constitutively active and the coactivator peptide (fluorescein-D22) was recruited in the absence of ligand, or compound (Fig. 2a). The binding of an antagonist to RORγ LBD causes a conformational change of the receptor, leading to a decrease in the affinity of the receptor for the coactivator peptide. The separation of the fluorescently labeled coactivator peptide from RORγ LBD from the receptor with the terbium-labeled antibody causes a decrease in the TR-FRET signal compared to those without compound. The assay was validated by detecting the ligand-independent recruitment of coactivator peptide in the presence or absence of RORγ LBD (2.5- to 3-fold assay window). Effects of the key compounds of the novel chemotype in Fig. 1, were tested in LanthaScreen TR-FRET RORγ coactivator assay.
The assay was performed with GST-tag RORγ LBD (25 ng/reaction, Creative Biomart), 0.6 μM Fluorescein-D22 coactivator peptide and 8 nM Tb anti-GST antibody (Invitrogen) at room temperature for 60 minutes. The fluorescent signals were measured with 520 nm emission and 495 nm excitation on Tecan Infinite. The data were calculated using DMSO control as 0% inhibition and non-protein control as 100% inhibition. IC50 values were calculated using non-linear regression analysis of GraphPad Prism in all assays.

[2] = Dermal PK, BALB/c mouse; type: in vivo; conditions: for Exposure in plasma: 2% in Vaseline, topical
Protocol: The dermal PK studies of Compound 1 in Vaseline were performed in dorsal skin of female C57BL/6 and male BALB/c mice via topical route. The skin (1.5 cm × 2 cm) was shaved one day prior to the dosing. At tissue collecting time point, the skin surface was decontaminated (twice with hand soap, twice with water, alternatively, and dried with tissue swabs). Stratum corneum is removed with tape strips for five times. The tissues were homogenized for PK analyses of Compound 1 by LC/MS.

[3] = Dermal PK, miniature pig; type: in vivo, Bama miniature pig; conditions: for Exposure in plasma: topical
Protocol: Similar procedures were carried out for dermal PK of female SD rats and female Bama miniature pigs. Briefly, each area of topical application was 4 cm × 9 cm for SD rats and 6 cm × 6 cm for miniature pigs. After decontamination, the biopsy sections of SD rats were tape stripped for five times and those of miniature pig for twenty-five times, respectively. Blood and dorsal skin tissues of the animals were collected and analyzed for the compounds via LC/MS. The experimental protocol used in this study was approved by the Institutional Animal Care and Use Committees (IACUC). The experiments were conducted in accordance with the Guiding Principles for the Care and Use of Laboratory Animals and complied with the ARRIVE guidelines.

[4] = tested on: IMQ-induced psoriasis-like skin inflammation mice; assay: IMQ-induced psoriasis-like skin inflammation model, topical treatment; type: in vivo, BALB/c mice
Protocol: At the end of the study, the mouse plasma and diseased back skin were collected 3 h after topical application for PK analysis.
Psoriasis was induced by topical application of IMQ cream on the shaved dorsal skin as described by Leslie van der Fits et al.[18]. SHR168442 in Vaseline (n = 10 per group) was treated once a day (QD) from 3 days prior to day 1, and then twice a day (BID) from day 1 to day 6. The animal was sacrificed at 3 h after the first dose in the morning of day 7. Erythema, scaling, and thickness of the back skin were scored independently daily on a scale from 0 to 4. Blood and back skin tissues from the study were collected at 3 h (n = 4) post dosing in the morning of […]. The plasma and skin tissues after tape stripping were analyzed for Compound 1 as described above. The in-life portion of the study was carried out at Washington Biotechnology (Baltimore, MD). The housing conditions and in-life procedures were approved by IACUC. The experiments were conducted in accordance with the Guiding Principles for the Care and Use of Laboratory Animals and complied with the ARRIVE guidelines.

[5] = tested on: IL-23-induced psoriasis-like skin inflammation mice; assay: IL-23-induced psoriasis-like skin inflammation mouse model, topical treatment; type: in vivo; conditions: for IL17 / IL-6 / TNFα / Thickness of the back skin: day 8, Mean ± SEM, n = 10
Protocol: Psoriasis was induced by intradermal injection of IL-23 on mouse skin as described by Rizzo et al.[19]. Three days later after shaving (day 1), two injections of IL-23 (0.5 µg protein per mouse) were performed on both sides of the dorsal skin (except naïve group) for 8 days. SHR168442 in Vaseline was topically applied daily starting three day before IL-23 injections, and then twice a day starting on the day of IL-23 injections. The mice were weighed daily, and the skin were scored daily on a scale from 0 to 4. At day 8, the skin thickness was measured in live mice with a caliper and the animal was sacrificed 3 h after the first topical application. The in-life portion of the study was carried out at Nanjing University (Nanjing, China). The experimental protocol used in this study was approved by IACUC in Nanjing, China. The experiments were conducted in accordance with the Guiding Principles for the Care and Use of Laboratory Animals and complied with the ARRIVE guidelines.
IL-17A, IL-6 and TNFα were determined in plasma collected at day 8 using a cytometric bead array (BD Biosciences) following the vendor's instruction.

[6] = tested on: targets in the SAFETYscan47 panel; assay: SAFETYscan47 panel (DiscoverX), whole panel; conditions: 3 µM, duplicates, all targets
Protocol: To further profile any off-target activity, we counter-screened SHR168442 in SAFETYscan47 panel, compiled by DiscoverX based on the recommendation by major pharmaceutical companies. SHR168442 was screened at 3 µM in duplicates.

Compound: CCS(=O)(=O)c1ccc([C@H](CCO)c2nc3c(Cl)c(N4CCC(F)(F)CC4)c(Cl)cc3[nH]2)cc1 [SHR168442, (S)-3-(4,6-dichloro-5-(4,4-difluoropiperidin-1-yl)-1H-benzo[d]imidazol-2-yl)-3-(4-(ethylsulfonyl)phenyl)propan-1-ol]
- IC50 [1]: 35 ± 9 nM
- Exposure in plasma ([2]; 3 h): blq (below limit of quantitation (< 6 ng/mL))
- Exposure in plasma ([2]; 6 h): blq (below limit of quantitation (< 6 ng/mL))
- concentration at 3 h ([2]; male, BALB/c, mouse, in vivo): 2460 ng/g
- concentration at 6 h ([2]; male, BALB/c, mouse, in vivo): 4390 ng/g
- Exposure in plasma ([3]; 2% in Vaseline, 3 h): blq (below limit of quantitation (< 6 ng/mL))
- Exposure in plasma ([3]; 2% in Vaseline, 6 h): blq (below limit of quantitation (< 6 ng/mL))
- Exposure in plasma ([3]; 2% in Vaseline, 24 h): blq (below limit of quantitation (< 6 ng/mL))
- Exposure in plasma ([3]; 8% in Vaseline, 3 h): blq (below limit of quantitation (< 6 ng/mL))
- Exposure in plasma ([3]; 8% in Vaseline, 6 h): blq (below limit of quantitation (< 6 ng/mL))
- Exposure in plasma ([3]; 8% in Vaseline, 24 h): blq (below limit of quantitation (< 6 ng/mL))
- systemic exposures in miniature pigs ([3]; female, Bama, pig, in vivo): < 6 ng/mL
- cumulative scores (scaling, erythema, thickness) ([4]; 2%, 4% and 8% in Vaseline topical): clear dose-dependent reduction
- scores of erythema ([4]; 4% and 8% topical, day 6, versus vehicle control): significantly reduced
- score of scaling ([4]; 8% in Vaseline topical, days 4 to 6, scale 0 to 4): < 1.0
- exposures in diseased skin and plasma ([4]; 3 h after topical application, all treatments): high in skin and low in plasma
- body weight ([4]; all treatment groups): no significant body weight loss
- IL17 ([5]; 0.5% in Vaseline topical): 190 ± 28 fg/mL
- IL-6 ([5]; 0.5% in Vaseline topical): 124 ± 32 fg/mL
- TNFα ([5]; 0.5% in Vaseline topical): 5495 ± 837 fg/mL
- Thickness of the back skin ([5]; 0.5% in Vaseline topical): 0.452 ± 0.020 mm
- clinical scores ([5]; 0.5%, 2%, 8% in Vaseline topical, scale 0 to 4): reduce clinical scores in a dose-dependent manner
- IL17 ([5]; 2% in Vaseline topical): 172 ± 38 fg/mL
- IL-6 ([5]; 2% in Vaseline topical): 112 ± 43 fg/mL
- TNFα ([5]; 2% in Vaseline topical): 4284 ± 804 fg/mL
- Thickness of the back skin ([5]; 2% in Vaseline topical): 0.436 ± 0.019 mm
- IL17 ([5]; 8% in Vaseline topical): 185 ± 35 fg/mL
- IL-6 ([5]; 8% in Vaseline topical): 123 ± 37 fg/mL
- TNFα ([5]; 8% in Vaseline topical): 3380 ± 491 fg/mL
- Thickness of the back skin ([5]; 8% in Vaseline topical): 0.330 ± 0.015 mm
- reduction of skin thickness ([5]; 8% topical, relative to vehicle and naïve group): 97%
- body weight ([5]; all treatment groups): no significant body weight loss
- inhibition of the targets in the SAFETYscan47 panel [6]: below 50%
